Laboratory results reported in patent publication US6486128B1, “Method of using emamectin to treat fish parasites” (Schering-Plough Veterinary Corporation, priority 1999, dated 2002).
Values joined by “and” are separate entries in the source; they are usually repeats but may differ in a detail not shown here. Identical values can stand only once.

What was measured:
[1] = test system: L. salmonis; assay: All three studies summarised: oral treatment of Atlantic salmon against L. salmonis; assay type: in vivo, Lepeophtheirus salmonis
Method: (§1) Three studies were carried out at the Institute of Aquaculture Marine Environmental Research Laboratory in Machrihanish, Scotland. Atlantic salmon, Salmo salar L., post-smolts were obtained from a disease free stock and acclimatised at the test facility.
(§2) Fish were held in replicate groups in plastic fiber tanks, each with a volume of 0.54 m^3. Each tank was supplied with natural sea water at ambient temperature (7-14° C.) and salinity (30-35 ppt), at flow rates of approximately 18 l. min^−1. The tanks were fitted with mesh screens over the water outlet to retain uneaten fish pellets. Fish were observed daily for behavior and adverse drug reactions. Fish mortalities and the occurrence of gross sea lice damage were also recorded.
(§3) Sea lice were collected during harvesting on commercial salmon farms on the west coast of Scotland. Egg strings collected from gravid female lice were incubated in sea water at ambient temperature and within a salinity range of 32-35 ppt. Once the hatched larvae reached the copepodite stage, 38-170 copepodites per fish were introduced into each of four replicate tanks of fish and the water supply to each tank was turned off for approximately three hours to allow attachment of copepodites to the fish. This was repeated 4-5 times at intervals of 3-5 days until chalimus stages I, II, III and IV were present. Chalimus numbers were evaluated at day −1 or day −2 pre-treatment, on sub-samples of fish (N=6-9 fish per tank). At this point, fish were infested with pre-adult and adult lice, by adding 5-10 lice per fish to each tank. Water supplies to each tank were turned off for around one hour until all the lice had attached to the fish. Pre-treatment lice numbers were based on a sub-sample of the total population and presented as the mean number of chalimus per fish. Fish were then randomly re-distributed from the four original tanks to each control or treatment tank, as described in the experimental design for each study, and no further infestations were carried out during or after treatment.
(§4) The basal ration was Fulmar™ (BOCM Pauls Ltd.) 3.5 or 5 mm salmon feed pellets. Emamectin benzoate was dissolved in propylene glycol and mixed with fish oil prior to top coating the feed pellets. Control feeds were prepared in the same way with propylene glycol and fish oil. Treatment was administered at nominal dose rates of 0, 25, 50 and 100 μg kg^−1 fish biomass per day, at a feed rate of 0.5% biomass, for a period of seven consecutive days (days 0-6). Actual daily feed consumption was measured in each tank by collecting the uneaten feed pellets approximately thirty minutes after administration and subtracting the number of pellets from the daily ration fed. The mean dose consumed was calculated for each group as follows: [formula] Mean feed consumption (%)×nominal dose rate (μg·kg^−1)=Mean dose consumed (μg·kg^−1)
(§5) Evaluation of sea lice numbers was carried out at 7, 14 and 21 days from the start of treatment. Fish were anaesthetised in 40 mg·l^−1 ethyl-P-aminobenzoate (benzocaine) and each fish examined under a low power microscope. Lice were identified as chalimus I-IV, pre-adult I or II and adult stages. Pre-adults and adult lice were additionally identified as males or females. The numbers of each developmental stage were recorded. Any lice which detached in the anaesthetic solution were included in the counts and reattached to the fish after transferring them to fresh seawater. The fish were returned to the holding tanks after sampling and the same fish were evaluated at days 7, 14 and 21.
Results were summarised as chalimus (chalimus stages I-IV), motile lice pre-adult and adult stages) and total lice (chalimus and motile stages combined). Data on the number of lice per fish were subjected to F-tests for homogeneity of variances and a correlation test to examine the normality of distribution. Fish weights and pre-treatment lice counts were tested by one-way ANOVA. […]

[2] = test system: sea lice, Lepeophtheirus salmonis; assay: Dose confirmation study II: efficacy of emamectin benzoate in feed against induced sea lice infestations on Atlantic salmon; assay type: in vivo
Method: as §1, §2, §3, §4, §5
The water temperature was 9-12° C. and salinity was 30-34 ppt. Pre-treatment, mean fish weights were 418.2 g (±49 g S.D). Emamectin benzoate was administered at se rates of 0 and 50 μg kg^−1 biomass. There were three replicate tanks per treatment with a sample size of 15-16 fish per tank. […]

[3] = Daily observation of fish for behavior, adverse drug reactions and mortalities (three studies); assay type: in vivo, Atlantic salmon, Salmo salar L.; conditions: any of the doses tested (25, 50, 100 μg kg^−1 per day, 7 days in feed)
Method: as §2

[4] = test system: sea lice, Lepeophtheirus salmonis; assay: Dose titration study: efficacy of emamectin benzoate in feed against induced sea lice infestations on Atlantic salmon; assay type: in vivo; conditions: for Percentage fish mortality: mortality attributed to sea lice damage, includes culled fish
Method: as §1, §2, §3, §4, §5
The water temperature was 7-10° C. and salinity was 33-34 ppt. Pre-treatment, mean fish weights were 192 g (±30 g S.D). Emamectin benzoate was administered at nominal daily dose rates of 0, 25, 50 and 100 μg kg^−1 fish biomass. There were two replicate tanks per treatment with a sample size of 19 or 20 fish per tank. […]

[5] = test system: sea lice, Lepeophtheirus salmonis; assay: Dose confirmation study I: efficacy of emamectin benzoate in feed against induced sea lice infestations on Atlantic salmon; assay type: in vivo; conditions: for Percentage fish mortality: mortality attributed to sea lice damage, includes culled fish
Method: as §1, §2, §3, §4, §5
The water temperature was 12-14° C. and salinity was 33-35 ppt. Pre-treatment, mean fish weights were 224 g (±43 g S.D). Emamectin benzoate was administered at nominal daily dose rates of 0, 25, and 50 μg kg^−1 biomass. There were three replicate tanks per treatment with 15 fish per tank. […]

[6] = dose rate 50 μg kg^−1, three studies
[7] = nominal dose 50 μg·kg^−1/day (consumed 45.7) in feed Day 0-6, Day 7
[8] = nominal dose 50 μg·kg^−1/day (consumed 45.7) in feed Day 0-6, day 21
[9] = nominal dose 50 μg·kg^−1/day in feed Day 0-6, Day 14
[10] = nominal dose 50 μg·kg^−1/day in feed Day 0-6, Day 21
[11] = nominal dose 25 μg·kg^−1/day (consumed 21.5) in feed Day 0-6, Day 7
[12] = nominal dose 25 μg·kg^−1/day (consumed 21.5) in feed Day 0-6, day 21
[13] = nominal dose 25 μg·kg^−1/day in feed Day 0-6, Day 14
[14] = nominal dose 25 μg·kg^−1/day in feed Day 0-6, Day 21
[15] = nominal dose 50 μg·kg^−1/day (consumed 45.0) in feed Day 0-6, Day 7
[16] = nominal dose 50 μg·kg^−1/day (consumed 45.0) in feed Day 0-6, day 21
[17] = nominal dose 100 μg·kg^−1/day (consumed 91.0) in feed Day 0-6, Day 7
[18] = nominal dose 100 μg·kg^−1/day (consumed 91.0) in feed Day 0-6, day 21
[19] = nominal dose 100 μg·kg^−1/day in feed Day 0-6, Day 14
[20] = nominal dose 100 μg·kg^−1/day in feed Day 0-6, Day 21
[21] = nominal dose 25 μg·kg^−1/day (consumed 20.2) in feed Day 0-6, Day 7
[22] = nominal dose 25 μg·kg^−1/day (consumed 20.2) in feed Day 0-6, day 21
[23] = nominal dose 50 μg·kg^−1/day (consumed 44.3) in feed Day 0-6, Day 7
[24] = nominal dose 50 μg·kg^−1/day (consumed 44.3) in feed Day 0-6, day 21

## emamectin benzoate
[1]; 50 μg kg^−1, day 7 from the start of medication, three studies
  reduction of motile lice numbers: 58-80%
[1]; [6]
  Percentage of fish with no motile lice present: ≤ 87%
  percentage of fish with no lice present of any stage: 20-30%
  reductions in sea lice numbers consistently achieved: 94-95%
[1]; oral treatment of Atlantic salmon
  efficacy against the immature chalimus stages: highly effective
[1]; oral treatment of Atlantic salmon, all three studies
  efficacy against the motile and chalimus stages of L. salmonis: very good efficacy
[2]; 50 μg kg^−1 groups, by day 21 (21% of control fish had lesions)
  cranial lesions resulting from sea lice activity: No cranial lesions
[2]; [7]
  % Reduction relative to controls (Total lice): 46% and 45.9%
  Mean Total lice (± S.D): 40.5 ± 12.2
  Mean chalimus (± S.D): 30.0 ± 11.8
  Mean motiles (± S.D): 10.5 ± 8.1
[2]; nominal dose 50 μg·kg^−1/day (consumed 45.7) in feed Day 0-6, Day 21
  % Reduction relative to controls (Total lice): 95% and 94.6%
[2]; [8]
  Percentage of fish with no lice present (chalimus or motiles): 27%
  Percentage of fish with no motile lice present: 66% and 66.3%
[2]; [9]
  % Reduction relative to controls (Total lice): 70.7%
  Mean Total lice (± S.D): 14.7 ± 5.9
  Mean chalimus (± S.D): 12.7 ± 5.7
  Mean motiles (± S.D): 2.0 ± 3.2
[2]; [10]
  Mean Total lice (± S.D): 2.1 and 2.1 ± 2.1
  Mean chalimus (± S.D): 1.5 ± 1.7
  Mean motiles (± S.D): 0.6 and 0.6 ± 1.1
[2]; nominal dose 50 μg·kg^−1/day, mortality figures include culled fish
  Percentage fish mortality: 0%
[3]
  adverse effects or fish mortality attributed to treatment: No adverse effects or fish mortality
[4]; all treatment groups (25, 50, 100 μg kg^−1), day 7
  reduction of total numbers of lice per fish compared to the control groups: 35.4-37.5%
[4]; [11]
  % Reduction relative to controls (Total lice): 36.2%
  Mean Total lice (± S.D): 32.6 ± 10.7
  Mean chalimus (± S.D): 20.9 ± 8.6
  Mean motiles (± S.D): 11.7 ± 6.0
[4]; nominal dose 25 μg·kg^−1/day (consumed 21.5) in feed Day 0-6, Day 21
  % Reduction relative to controls (Total lice): 89.8%
[4]; [12]
  Percentage of fish with no lice present (chalimus or motiles): 13.8%
  Percentage of fish with no motile lice present: 55.0%
[4]; [13]
  % Reduction relative to controls (Total lice): 70.8%
  Mean Total lice (± S.D): 13.1 ± 6.9
  Mean chalimus (± S.D): 9.7 ± 3.9
  Mean motiles (± S.D): 3.4 ± 6.4
[4]; [14]
  Mean Total lice (± S.D): 3.5 ± 2.7
  Mean chalimus (± S.D): 2.4 ± 1.9
  Mean motiles (± S.D): 1.1 ± 2.2
[4]; nominal dose 25 μg·kg^−1/day
  Percentage fish mortality: 0%
[4]; [15]
  % Reduction relative to controls (Total lice): 37.5%
  Mean Total lice (± S.D): 31.9 ± 11.4
  Mean chalimus (± S.D): 24.8 ± 10.3
  Mean motiles (± S.D): 7.1 ± 4.1
[4]; nominal dose 50 μg·kg^−1/day (consumed 45.0) in feed Day 0-6, Day 21
  % Reduction relative to controls (Total lice): 95.2%
[4]; [16]
  Percentage of fish with no lice present (chalimus or motiles): 22.5%
  Percentage of fish with no motile lice present: 87.5%
[4]; [9]
  % Reduction relative to controls (Total lice): 70.3%
  Mean Total lice (± S.D): 13.4 ± 5.9
  Mean chalimus (± S.D): 12.4 ± 3.5
  Mean motiles (± S.D): 1.0 ± 1.2
[4]; [10]
  Mean Total lice (± S.D): 1.7 and 1.7 ± 1.3
  Mean chalimus (± S.D): 1.6 ± 1.5
  Mean motiles (± S.D): 0.1 ± 0.3
[4]; nominal dose 50 μg·kg^−1/day
  Percentage fish mortality: 0%
[4]; [17]
  % Reduction relative to controls (Total lice): 35.4%
  Mean Total lice (± S.D): 33.0 ± 10.7
  Mean chalimus (± S.D): 29.0 ± 9.8
  Mean motiles (± S.D): 4.0 ± 3.6
[4]; nominal dose 100 μg·kg^−1/day (consumed 91.0) in feed Day 0-6, Day 21
  % Reduction relative to controls (Total lice): 95.8%
[4]; [18]
  Percentage of fish with no lice present (chalimus or motiles): 28.2%
  Percentage of fish with no motile lice present: 87.0%
[4]; [19]
  % Reduction relative to controls (Total lice): 66.4%
  Mean Total lice (± S.D): 15.1 ± 5.8
  Mean chalimus (± S.D): 14.1 ± 5.5
  Mean motiles (± S.D): 1.0 ± 3.2
[4]; [20]
  Mean Total lice (± S.D): 1.5 ± 1.6
  Mean chalimus (± S.D): 1.2 ± 1.2
  Mean motiles (± S.D): 0.3 ± 1.0
[4]; nominal dose 100 μg·kg^−1/day
  Percentage fish mortality: 2.5%
[4]; treated groups (25, 50, 100 μg kg^−1), day 21
  mean numbers of motile lice in the treated groups: 0.1-1.1 per fish
[5]; [21]
  % Reduction relative to controls (Total lice): 43.8%
  Mean Total lice (± S.D): 34.2 ± 15.8
  Mean chalimus (± S.D): 1.8 ± 1.7
  Mean motiles (± S.D): 32.4 ± 15.4
[5]; nominal dose 25 μg·kg^−1/day (consumed 20.2) in feed Day 0-6, Day 21
  % Reduction relative to controls (Total lice): 82% and 81.9%
[5]; [22]
  Percentage of fish with no lice present (chalimus or motiles): 3%
  Percentage of fish with no motile lice present: 6.1%
[5]; [13]
  % Reduction relative to controls (Total lice): 76.0%
  Mean Total lice (± S.D): 9.8 ± 4.4
  Mean chalimus (± S.D): 0.30
  Mean motiles (± S.D): 9.5 ± 4.4
[5]; [14]
  Mean Total lice (± S.D): 4.9 and 4.9 ± 3.1
  Mean chalimus (± S.D): 0
  Mean motiles (± S.D): 4.9 ± 3.1
[5]; nominal dose 25 μg·kg^−1/day
  Percentage fish mortality: 31%
[5]; [23]
  % Reduction relative to controls (Total lice): 53.8%
  Mean Total lice (± S.D): 28.1 ± 13.1
  Mean chalimus (± S.D): 3.2 ± 2.2
  Mean motiles (± S.D): 24.9 ± 13.2
[5]; nominal dose 50 μg·kg^−1/day (consumed 44.3) in feed Day 0-6, Day 21
  % Reduction relative to controls (Total lice): 94% and 94.3%
[5]; [24]
  Percentage of fish with no lice present (chalimus or motiles): 28.6%
  Percentage of fish with no motile lice present: 28.6%
[5]; [9]
  % Reduction relative to controls (Total lice): 88.0%
  Mean Total lice (± S.D): 4.9 ± 2.7
  Mean chalimus (± S.D): 0.6
  Mean motiles (± S.D): 4.3 ± 2.6
[5]; [10]
  Mean Total lice (± S.D): 1.6 and 1.6 ± 1.3
  Mean chalimus (± S.D): 0
  Mean motiles (± S.D): 1.6 ± 1.4
[5]; nominal dose 50 μg·kg^−1/day
  Percentage fish mortality: 27%
[5]; treated groups (25 and 50 μg kg^−1), day 7
  reduction of total mean numbers of lice compared to the control groups: 44-54%
[5]; treated groups (25 and 50 μg kg^−1), day 21
  total lice numbers lower than in the control groups: 82-94%
